This assay relates to hippocampal neurons. As to the kind of experiment: Neurite outgrowth in cultures of rat hippocampal neurons, embryonic day 19, 24 h. Type of assay: cell-based. To be noted: for Neuritogenic effect 3 μM NPY fragment (% of control): 3 μM peptide; for neurite outgrowth / neuritogenic effect (in words): E19 prenatal rat hippocampal cultures. Here is the method:
When pharmacological inhibitors or antagonist are applied these are added to cultures 10 min prior to peptide addition. When soluble immunoglobulin modules are used, these are preincubated with peptide solution for 10 min before addition of the mix to the cultures. To knock down NCAM expression, the neurons were transfected with a p-GFP—V-RS vector that encodes short-hairpin RNA targeting NCAM (OriGene, Rockville, Md., USA) using a nucleofector device and a Rat Neuron Nucleofector kit (Amaxa, Gaithersburg, Md., USA). NCAM knock-out mice (C57BI/6JZtm) were a kind gift from prof. Herbert Hildebrandt (Hannover Medical School) and were created as previous described (Cremer et al., 1994). The neurons were fixed, immunostained, and micrographs were recorded and evaluated as previously described (Rønn et al., 2000; Nielsen et al., 2009). Cf. FIGS. 3-9
Neurite outgrowth in cultures of hippocampal neurons from wistar rats, embryonic stage day 19, incubated for 24 hours (37° C., 5% CO2) in supplemented Neurobasal medium with NPY fragments added; effect compared to un-stimulated controls (set to 100%). Values are mean normalized to un-stimulated controls±standard error of mean (SEM). *P<0.05, […], […], Student's t-test versus un-stimulated control.

[1] abbreviates: un-stimulated controls set to 100%, mean ± SEM.

This is an account of results in patent US10017554B2, “Neuropeptide Y-derived peptides” (University of Copenhagen, priority 2013, dated 2018).

As for “ALRHYINLITRQRA (listed as Homo sapiens) [NPY23-36 ala36]”, the “Neuritogenic effect 3 μM NPY fragment (% of control)” value under setting [1] is 91.7 (n = 1) % of control. As to “PAEDMARYYSALRHYINLITRQR (listed as Homo sapiens) [NPY13-35]”, where the note is “1 μM peptide, un-stimulated controls set to 100%, mean ± SEM”, the “Neuritogenic effect 1 μM NPY fragment (% of control)” value is 164.2 ± 7.2 % of control. For the same sequence, the “Neuritogenic effect 3 μM NPY fragment (% of control)” value under setting [1] is 275.8 ± 31.2 % of control. As to “RQRTILNIYHRLASYYRAMDEAPADEGPNDPKS (listed as Homo sapiens) [NPY3-35 reversed sequence, reference compound]”, the “neurite outgrowth / neuritogenic effect (in words)” value is “did not induce the same neuritogenic effects”. On the same count and under the same terms, under “SALRHYINLITRQR (listed as Homo sapiens) [NPY22-35]” stands “does not”. As for “YSALRHYINLITRQR (listed as Homo sapiens) [NPY21-35]”, the “neurite outgrowth / neuritogenic effect (in words)” value was “induce neurite outgrowth”. For the same sequence, under setting [1], the “Neuritogenic effect 3 μM NPY fragment (% of control)” value is reported as 266.4 ± 26.6 % of control.
